Source: patent publication US20070275954A1 (published 2007)

SMILES | melting point
c1csc(C2N=C(c3cc[nH]c3)c3cccnc3N=C2N2CCC2)c1 (stereo not shown) | 168 to 172 °C
Cn1ccnc1C1=NC(c2cccs2)C(N2CCC2)=Nc2ncccc21 (stereo not shown) | 215 to 217 °C
CNC1=Nc2ncccc2C(c2ccsc2)=NC1c1cccs1 (stereo not shown) | 85 to 88 °C
c1csc(C2N=C(c3ccsc3)c3cccnc3N=C2NC2CC2)c1 (stereo not shown) | 90 to 96 °C
CNC1=Nc2ncccc2C(c2cnc[nH]2)=NC1c1cccs1 (stereo not shown) | 280 to 290 °C
CNC1=Nc2ncccc2C(c2ccoc2)=NC1c1cccs1 (stereo not shown) | 110 to 114 °C
CNC1=Nc2ncccc2C(c2cn[nH]c2)=NC1c1cccs1 (stereo not shown) | 187 to 194 °C
CNC1=Nc2ncccc2C(c2ccc[nH]2)=NC1c1cccs1 (stereo not shown) | 165 to 170 °C
CNC1=Nc2ncccc2C(c2cc[nH]n2)=NC1c1cccs1 (stereo not shown) | 269 to 272 °C
c1csc(C2N=C(c3ccsc3)c3cccnc3N=C2N2CCC2)c1 (stereo not shown) | 90 to 95 °C
